Source: publication PMC5979600, “An Organic Solvent-Tolerant Lipase with Both Hydrolytic and Synthetic Activities from the Oleaginous Fungus Mortierella echinosphaera” (International Journal of Molecular Sciences, 2018)

System: T1, extracellular lipase from Mortierella echinosphaera CBS 575.75 (M. echinosphaera lipase)
T1 construct: native enzyme purified from culture filtrate (ammonium sulfate, Sephadex G-75, Macro-Prep High Q, Sephacryl S-200 HR); about 30 kDa by SDS-PAGE
Assay: p-nitrophenol release, Lineweaver-Burk
Format: biochemical
Conditions: pH 6.8, 25 °C, 30 min, 0.05-3.2 mM substrate; free enzyme

Row | Km | Compound
1 | 336 µM | CCCCCCCCCCCCCCCC(=O)Oc1ccc([N+](=O)[O-])cc1 [p-nitrophenyl palmitate]
2 | 333 µM | CCCCCCCCCC(=O)Oc1ccc([N+](=O)[O-])cc1 [pNP-decanoate]
